Data set [1] can be described thus: Solubility in n-hexane (stir 1 hour, centrifuge, weigh dried residue of supernatant). The data set is classed as physicochemical. To be noted: for solubility in n-hexane: room temperature (25° C.), stirred 1 hour. The method, then: The solubility in n-hexane at 25° C. is determined as follows. In some detail, a predetermined amount of n-hexane is added to a fullerene derivative. The mixture is then stirred at 25° C. for 1 hour. The resulting slurry is then subjected to centrifugal separation. The solution is then decanted. The solvent is then distilled off the resulting supernatant liquid. The resulting precipitate is dried in vacuo, and then measured for weight. Thus, the solubility in n-hexane at 25° C. is calculated.
To 100 mg of C60[CH2Si(CH3)3]5H was added 0.5 ml of n-hexane. The mixture was then stirred at 25° C. for 1 hour. The slurry was purified, and then subjected to centrifugal separation by a centrifugal separator. The resulting supernatant liquid was withdrawn. The solvent was then distilled off. The residue was then dried in vacuo. The weight of the residue was then measured. The result was 32.5 mg.

Data set [2] in a line: Stability of the solid at room temperature in the air. The data set is classed as physicochemical. As to conditions: solid (brown powder).

The text below walks through data of patent US7202374B2, “Fullerene derivatives and their metal complexes” (Mitsubishi Chemical Corporation, priority 2002, dated 2007).

Consider (C6H5)5C60H, for which, in data set [1], the solubility in n-hexane result is on record as “less than 0.001 mg/ml”.
With (CH3)5C60H, the solubility in n-hexane entry in data set [1] is listed as “less than 0.001 mg/ml”.
C60[CH2Si(CH3)3]2: in data set [1] (50° C., otherwise same conditions as in Example 1), the “solubility in n-hexane measured at 50° C.” value is on record as “about 0.2 mg/ml”. The solubility in n-hexane result in data set [1] is “about 0.05 mg/ml”.
In the case of C60[CH2Si(CH3)3]5H, the solubility in n-hexane in data set [1] amounted to 65 mg/mL. Also, the stability when solid result in data set [2] was “stable at room temperature in the air”.
Turning to C60{CH2Si(CH3)3}3H, the solubility in n-hexane in data set [1] was found to be 11 mg/mL. For the same substance, in data set [2], the stability when solid result was “stable at room temperature in the air”.
In data set [1], “Rh[C60{CH2Si(CH3)3}3](1,5-cyclooctadiene)” registered a solubility in n-hexane of 5.0 mg/mL.
